Among the data in PubChem BioAssay AID1259407 (Chemical Carcinogenesis Research Information System (CCRIS), 2018) are mutagenic call values, retold here.

The subject of the data set is CCRIS mutagenicity, Ames/micronucleus/aberration tests. In words: CCRIS mutagenicity studies.
Where [1] appears, read: Test System: AMES SALMONELLA TYPHIMURIUM, Strain/Indicator: TA98, Metabolic Activation: NONE, Method: PREINCUBATION
Setting [2] is: Test System: AMES SALMONELLA TYPHIMURIUM, Strain/Indicator: TA98, Metabolic Activation: NONE, Method: STANDARD PLATE.
[3] abbreviates: Test System: AMES SALMONELLA TYPHIMURIUM, Strain/Indicator: TA100, Metabolic Activation: NONE, Method: PREINCUBATION
The mark [4] stands for this setting: Test System: AMES SALMONELLA TYPHIMURIUM, Strain/Indicator: TA100, Metabolic Activation: NONE, Method: STANDARD PLATE.

Active and inactive are the calls of the source. The rule behind the calls is not given here.

In the case of `CCCCC1C(=O)N(c2ccccc2)N(c2ccccc2)C1=O`, the mutagenic call (End Point: IN VITRO CHROMOSOMAL ABERRATIONS, Test System: CHINESE HAMSTER OVARY CELLS, Metabolic Activation: NONE) was “inactive; negative”; the mutagenic call (End Point: IN VITRO CHROMOSOMAL ABERRATIONS, Test System: CHINESE HAMSTER OVARY CELLS, Metabolic Activation: RAT, LIVER, S-9, AROCLOR 1254) was “active; positive”; the mutagenic call (Test System: AMES SALMONELLA TYPHIMURIUM, Strain/Indicator: TA97A, Metabolic Activation: NONE, Method: STANDARD PLATE) was “inactive; negative”; the mutagenic call (Test System: AMES SALMONELLA TYPHIMURIUM, Strain/Indicator: TA97A, Metabolic Activation: RAT LIVER S-9, PHENOBARBITAL, Method: STANDARD PLATE) is “inactive; negative”; the mutagenic call (Test System: AMES SALMONELLA TYPHIMURIUM, Strain/Indicator: TA98, Metabolic Activation: HAMSTER, LIVER, S-9, AROCLOR 1254, Method: PREINCUBATION) was “inactive; negative”; the mutagenic call under setting [1] is “inactive; negative”. In addition, the mutagenic call by setting is: under setting [2], “inactive; negative”; (Test System: AMES SALMONELLA TYPHIMURIUM, Strain/Indicator: TA98, Metabolic Activation: RAT LIVER S-9, PHENOBARBITAL, Method: STANDARD PLATE) “inactive; negative”; (Test System: AMES SALMONELLA TYPHIMURIUM, Strain/Indicator: TA98, Metabolic Activation: RAT, LIVER, S-9, AROCLOR 1254, Method: PREINCUBATION) “inactive; negative”; (Test System: AMES SALMONELLA TYPHIMURIUM, Strain/Indicator: TA100, Metabolic Activation: HAMSTER, LIVER, S-9, AROCLOR 1254, Method: PREINCUBATION) “inactive; negative”; under setting [3], “inactive; negative”; under setting [4], “inactive; negative”. In addition, the mutagenic call was “inactive; negative” (Test System: AMES SALMONELLA TYPHIMURIUM, Strain/Indicator: TA100, Metabolic Activation: RAT LIVER S-9 PHENOBARBITAL, Method: STANDARD PLATE); “inactive; negative” (Test System: AMES SALMONELLA TYPHIMURIUM, Strain/Indicator: TA100, Metabolic Activation: RAT, LIVER, S-9, AROCLOR 1254, Method: PREINCUBATION); “inactive; negative” (Test System: AMES SALMONELLA TYPHIMURIUM, Strain/Indicator: TA102, Metabolic Activation: NONE, Method: STANDARD PLATE); “inactive; negative” (Test System: AMES SALMONELLA TYPHIMURIUM, Strain/Indicator: TA102, Metabolic Activation: RAT LIVER S-9, PHENOBARBITAL, Method: STANDARD PLATE); “inactive; negative” (Test System: AMES SALMONELLA TYPHIMURIUM, Strain/Indicator: TA1535, Metabolic Activation: HAMSTER, LIVER, S-9, AROCLOR 1254, Method: PREINCUBATION); “inactive; negative” (Test System: AMES SALMONELLA TYPHIMURIUM, Strain/Indicator: TA1535, Metabolic Activation: NONE, Method: PREINCUBATION). In addition, the mutagenic call is “inactive; negative” (Test System: AMES SALMONELLA TYPHIMURIUM, Strain/Indicator: TA1535, Metabolic Activation: RAT, LIVER, S-9, AROCLOR 1254, Method: PREINCUBATION); “inactive; negative” (Test System: AMES SALMONELLA TYPHIMURIUM, Strain/Indicator: TA1537, Metabolic Activation: HAMSTER, LIVER, S-9, AROCLOR 1254, Method: PREINCUBATION); “inactive; negative” (Test System: AMES SALMONELLA TYPHIMURIUM, Strain/Indicator: TA1537, Metabolic Activation: NONE, Method: PREINCUBATION); “inactive; negative” (Test System: AMES SALMONELLA TYPHIMURIUM, Strain/Indicator: TA1537, Metabolic Activation: RAT, LIVER, S-9, AROCLOR 1254, Method: PREINCUBATION); “active; positive” (Test System: MOUSE LYMPHOMA, Strain/Indicator: L5178Y (TK+/TK-), Metabolic Activation: NONE, Method: SUSPENSION/PLATE); “active; positive” (Test System: MOUSE LYMPHOMA, Strain/Indicator: L5178Y (TK+/TK-), Metabolic Activation: RAT, LIVER, S-9, AROCLOR 1254, Method: SUSPENSION/PLATE).
As to `Cc1ccc([N+](=O)[O-])cc1N=[N+]([O-])c1cc([N+](=O)[O-])ccc1C`, the mutagenic call by setting is: (Test System: AMES SALMONELLA TYPHIMURIUM, Strain/Indicator: TA98, Metabolic Activation: NONE, Method: SUSPENSION/PLATE) “inactive; negative”; (Test System: AMES SALMONELLA TYPHIMURIUM, Strain/Indicator: TA98, Metabolic Activation: RAT, LIVER, S-9, PHENOBARBITAL AND 5,6-BENZOFLAVONE, Method: SUSPENSION/PLATE) “inactive; negative”; (Test System: AMES SALMONELLA TYPHIMURIUM, Strain/Indicator: TA100, Metabolic Activation: NONE, Method: SUSPENSION/PLATE) “inactive; negative”; (Test System: AMES SALMONELLA TYPHIMURIUM, Strain/Indicator: TA100, Metabolic Activation: RAT, LIVER, S-9, PHENOBARBITAL AND 5,6-BENZOFLAVONE, Method: SUSPENSION/PLATE) “inactive; negative”.
On to `NNc1nncc2cnccc12`, for which the mutagenic call by setting is: under setting [1], “active; positive”; (Test System: AMES SALMONELLA TYPHIMURIUM, Strain/Indicator: TA98, Metabolic Activation: RAT, LIVER, S-9, PCB, Method: PREINCUBATION) “active; positive”; under setting [3], “active; positive”; (Test System: AMES SALMONELLA TYPHIMURIUM, Strain/Indicator: TA100, Metabolic Activation: RAT, LIVER, S-9, PCB, Method: PREINCUBATION) “active; positive”.
Regarding `O=[N+]([O-])C1=Cc2c3c1cccc3cc1ccc3ccccc3c21`, the mutagenic call reads like this: under setting [2], “active; positive”; (Test System: AMES SALMONELLA TYPHIMURIUM, Strain/Indicator: TA98, Metabolic Activation: RAT, LIVER, S-9, AROCLOR 1254, Method: STANDARD PLATE) “active; positive”; under setting [4], “inactive; negative”; (Test System: AMES SALMONELLA TYPHIMURIUM, Strain/Indicator: TA100, Metabolic Activation: RAT, LIVER, S-9, AROCLOR 1254, Method: STANDARD PLATE) “inactive; negative”; (Test System: AMES SALMONELLA TYPHIMURIUM, Strain/Indicator: TA1535, Metabolic Activation: NONE, Method: STANDARD PLATE) “inactive; negative”; (Test System: AMES SALMONELLA TYPHIMURIUM, Strain/Indicator: TA1535, Metabolic Activation: RAT, LIVER, S-9, AROCLOR 1254, Method: STANDARD PLATE) “inactive; negative”. The mutagenic call by setting is: (Test System: AMES SALMONELLA TYPHIMURIUM, Strain/Indicator: TA1537, Metabolic Activation: NONE, Method: STANDARD PLATE) “active; positive”; (Test System: AMES SALMONELLA TYPHIMURIUM, Strain/Indicator: TA1537, Metabolic Activation: RAT, LIVER, S-9, AROCLOR 1254, Method: STANDARD PLATE) “inactive; negative”; (Test System: AMES SALMONELLA TYPHIMURIUM, Strain/Indicator: TA1538, Metabolic Activation: NONE, Method: STANDARD PLATE) “active; positive”; (Test System: AMES SALMONELLA TYPHIMURIUM, Strain/Indicator: TA1538, Metabolic Activation: RAT, LIVER, S-9, AROCLOR 1254, Method: STANDARD PLATE) “active; positive”.
Turning to `[S]1[S][SbH][S][S][SbH]1`, the mutagenic call (Test System: CHINESE HAMSTER OVARY, Strain/Indicator: CHO (HGPRT)/6-THIOGUANINE, Metabolic Activation: NONE) was “inactive; negative” and the mutagenic call (Test System: CHINESE HAMSTER OVARY, Strain/Indicator: CHO (HGPRT)/6-THIOGUANINE, Metabolic Activation: RAT, LIVER, S-9, AROCLOR 1254) was “inactive; negative”.
